ChEMBL document CHEMBL1909046, “DrugMatrix in vitro pharmacology data”

Experiments:
Carbonic anhydrase 2 = Carbonic anhydrase 2 (Homo sapiens, UniProt P00918); assay: DRUGMATRIX: Carbonic Anhydrase II enzyme inhibition (substrate: 4-Nitrophenyl acetate (4-NPA)); type: tissue-based, Erythrocyte; settings: erythrocyte; Not Active = under 50% inhibition at 10 µM
[1] = target: C-C chemokine receptor type 2 (Homo sapiens, UniProt P41597); type: cell membranes, CHO-K1, Membrane; settings: cho-k1; note: in other assays of this panel Not Active means under 50% inhibition at 10 µM
Sequence of C-C chemokine receptor type 2 (P41597 whole entry): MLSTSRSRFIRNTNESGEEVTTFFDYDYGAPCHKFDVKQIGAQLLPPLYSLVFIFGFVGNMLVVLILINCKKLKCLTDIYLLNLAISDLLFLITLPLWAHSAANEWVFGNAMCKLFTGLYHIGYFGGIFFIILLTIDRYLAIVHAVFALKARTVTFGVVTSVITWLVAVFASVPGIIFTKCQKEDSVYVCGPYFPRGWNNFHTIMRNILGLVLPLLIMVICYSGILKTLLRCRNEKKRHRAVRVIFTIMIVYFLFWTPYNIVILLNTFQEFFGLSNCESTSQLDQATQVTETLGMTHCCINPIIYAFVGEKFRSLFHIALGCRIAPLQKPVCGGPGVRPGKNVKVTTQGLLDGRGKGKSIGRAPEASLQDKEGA

[2] = target: T1, Muscarinic acetylcholine receptor M5 (Homo sapiens, UniProt P08912); type: cell membranes, CHO-K1, Membrane; settings: for Ki: read-out: Ki; for all read-outs here: in other assays of this panel Not Active means under 50% inhibition at 10 µM
T1 sequence (P08912 whole entry): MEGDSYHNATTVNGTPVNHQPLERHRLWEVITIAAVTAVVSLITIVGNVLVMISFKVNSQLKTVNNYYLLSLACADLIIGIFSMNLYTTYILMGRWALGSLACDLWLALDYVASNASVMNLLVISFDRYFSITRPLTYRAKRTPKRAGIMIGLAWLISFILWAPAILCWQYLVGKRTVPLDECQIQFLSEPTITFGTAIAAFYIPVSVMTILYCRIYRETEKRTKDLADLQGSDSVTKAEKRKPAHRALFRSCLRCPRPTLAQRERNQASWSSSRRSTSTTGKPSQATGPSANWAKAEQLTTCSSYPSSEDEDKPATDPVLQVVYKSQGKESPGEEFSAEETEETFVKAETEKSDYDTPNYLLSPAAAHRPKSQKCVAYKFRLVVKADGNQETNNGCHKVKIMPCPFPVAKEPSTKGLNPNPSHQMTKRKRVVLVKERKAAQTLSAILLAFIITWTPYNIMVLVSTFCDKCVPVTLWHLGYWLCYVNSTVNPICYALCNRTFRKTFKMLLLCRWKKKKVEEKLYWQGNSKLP

[3] = target: T2, C-X-C chemokine receptor type 1 (Homo sapiens, UniProt P25024); note: in other assays of this panel Not Active means under 50% inhibition at 10 µM
T2 sequence (P25024 whole entry): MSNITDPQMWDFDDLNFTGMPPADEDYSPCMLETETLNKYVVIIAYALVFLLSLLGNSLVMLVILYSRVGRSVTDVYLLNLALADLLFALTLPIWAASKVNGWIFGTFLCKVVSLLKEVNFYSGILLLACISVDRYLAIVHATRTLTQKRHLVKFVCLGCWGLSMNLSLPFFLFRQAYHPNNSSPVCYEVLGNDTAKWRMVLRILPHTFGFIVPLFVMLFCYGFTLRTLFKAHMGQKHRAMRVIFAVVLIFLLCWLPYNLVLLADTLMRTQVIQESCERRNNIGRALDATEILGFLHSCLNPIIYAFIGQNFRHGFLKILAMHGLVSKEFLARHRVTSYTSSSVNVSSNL

Neutrophil elastase = target: T3, Neutrophil elastase (Homo sapiens, UniProt P08246); type: tissue-based;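 note: inhibition of neutrophil elastase enzyme activity, measured with a p-nitroanilide-linked peptide substrate; in other assays of this panel Not Active means under 50% inhibition at 10 µM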
T3 sequence (P08246 whole entry): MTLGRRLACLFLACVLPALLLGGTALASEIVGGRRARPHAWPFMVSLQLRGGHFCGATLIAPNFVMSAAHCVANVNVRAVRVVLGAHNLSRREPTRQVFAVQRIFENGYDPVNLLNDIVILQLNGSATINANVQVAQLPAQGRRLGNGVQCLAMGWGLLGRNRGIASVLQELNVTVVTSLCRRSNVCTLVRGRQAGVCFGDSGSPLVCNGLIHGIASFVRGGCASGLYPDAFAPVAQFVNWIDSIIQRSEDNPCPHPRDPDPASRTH

Cytochrome P450 2D6 = Cytochrome P450 2D6 (Homo sapiens, UniProt P10635); settings: bti-tn-5b1-4; note: in other assays of this panel Not Active means under 50% inhibition at 10 µM
Sequence of Cytochrome P450 2D6 (P10635 whole entry): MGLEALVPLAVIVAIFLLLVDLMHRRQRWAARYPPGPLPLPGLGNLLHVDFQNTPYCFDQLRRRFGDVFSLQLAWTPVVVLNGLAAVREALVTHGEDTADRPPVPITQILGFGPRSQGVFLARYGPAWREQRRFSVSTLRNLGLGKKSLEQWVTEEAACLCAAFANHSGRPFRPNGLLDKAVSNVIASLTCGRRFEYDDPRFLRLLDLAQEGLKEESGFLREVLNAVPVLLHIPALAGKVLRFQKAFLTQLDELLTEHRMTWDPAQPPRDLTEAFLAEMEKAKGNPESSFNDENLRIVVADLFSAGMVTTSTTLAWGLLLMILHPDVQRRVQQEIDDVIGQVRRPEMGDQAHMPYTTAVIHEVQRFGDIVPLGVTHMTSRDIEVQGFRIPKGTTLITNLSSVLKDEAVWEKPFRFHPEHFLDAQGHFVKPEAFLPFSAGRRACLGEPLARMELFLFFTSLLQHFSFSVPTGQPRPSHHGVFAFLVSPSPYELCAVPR

Cytochrome P450 2C19 = Cytochrome P450 2C19 (Homo sapiens, UniProt P33261); settings: bti-tn-5b1-4; note: in other assays of this panel Not Active means under 50% inhibition at 10 µM
Sequence of Cytochrome P450 2C19 (P33261 whole entry): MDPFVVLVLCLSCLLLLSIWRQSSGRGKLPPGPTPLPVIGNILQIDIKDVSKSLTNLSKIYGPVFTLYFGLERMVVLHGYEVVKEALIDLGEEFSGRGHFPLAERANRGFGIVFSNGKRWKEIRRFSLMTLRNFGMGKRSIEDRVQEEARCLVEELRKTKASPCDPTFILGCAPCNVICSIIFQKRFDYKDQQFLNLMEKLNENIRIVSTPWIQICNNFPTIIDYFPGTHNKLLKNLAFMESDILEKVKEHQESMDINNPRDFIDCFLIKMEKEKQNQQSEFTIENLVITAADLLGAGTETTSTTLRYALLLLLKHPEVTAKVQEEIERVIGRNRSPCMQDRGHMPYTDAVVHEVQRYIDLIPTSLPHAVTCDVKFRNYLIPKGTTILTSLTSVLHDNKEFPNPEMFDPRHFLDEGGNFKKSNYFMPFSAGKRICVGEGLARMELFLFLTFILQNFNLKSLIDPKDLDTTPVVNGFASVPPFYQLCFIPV

Row | SMILES | IC50 (Carbonic anhydrase 2) | IC50 [1] | IC50 ([2]; cho-k1) | IC50 [3] | IC50 (Neutrophil elastase) | IC50 (Cytochrome P450 2D6) | Ki (Cytochrome P450 2D6) | IC50 (Cytochrome P450 2C19) | Ki (Cytochrome P450 2C19) | IC50 ([2]; read-out: IC50) [µM] | Ki [2] [µM]
1 | CC[C@@H](CO)NC(=O)[C@@H]1C=C2c3cccc4[nH]cc(c34)C[C@H]2N(C)C1 [METHYLERGONOVINE] | Not Active | Not Active | Not Active | Not Active | Not Active |  |  |  |  |  | 
2 | COc1nc(C)nc(Cl)c1NC1=NCCN1 [MOXONIDINE] | Not Active | Not Active | Not Active | Not Active | Not Active | Not Active | Not Active | Not Active | Not Active |  | 
3 | COc1c(C)c2c(c(O)c1C/C=C(\C)CCC(=O)O)C(=O)OC2 [MYCOPHENOLIC ACID] | Not Active | Not Active | Not Active | Not Active | Not Active | Not Active | Not Active | Not Active | Not Active |  | 
4 | O=c1ncn2nc(Sc3ccc(F)cc3F)ccc2c1-c1c(Cl)cccc1Cl [NEFLAMAPIMOD] | Not Active | Not Active | Not Active | Not Active | Not Active | Not Active | Not Active | Not Active | Not Active |  | 
5 | CN1CCN(CCCN2c3ccccc3Sc3ccc(Cl)cc32)CC1 [PROCHLORPERAZINE] | Not Active | Not Active |  | Not Active | Not Active |  |  | Not Active | Not Active | 0.22 | 0.158
6 | CO[C@H]1/C=C/O[C@@]2(C)Oc3c(C)c(O)c4c(O)c(c(/C=N/N5CCN(C)CC5)c(O)c4c3C2=O)NC(=O)/C(C)=C\C=C\[C@H](C)[C@H](O)[C@@H](C)[C@@H](O)[C@@H](C)[C@H](OC(C)=O)[C@@H]1C [RIFAMPIN] | Not Active | Not Active | Not Active | Not Active | Not Active | Not Active | Not Active | Not Active | Not Active |  | 
7 | Nc1nc2ccc(OC(F)(F)F)cc2s1 [RILUZOLE] | Not Active | Not Active | Not Active | Not Active | Not Active |  |  |  |  |  | 
8 | Cc1nc2n(c(=O)c1CCN1CCC(c3noc4cc(F)ccc34)CC1)CCCC2 [RISPERIDONE] | Not Active | Not Active | Not Active | Not Active | Not Active |  |  | Not Active | Not Active |  | 
9 | C=CCC1(C(C)CCC)C(=O)NC(=O)NC1=O (stereo unspecified) [SECOBARBITAL] | Not Active | Not Active | Not Active | Not Active | Not Active | Not Active | Not Active | Not Active | Not Active |  | 
10 | C[C@@H]1CN(c2c(F)c(N)c3c(=O)c(C(=O)O)cn(C4CC4)c3c2F)C[C@H](C)N1 [SPARFLOXACIN] | Not Active | Not Active | Not Active | Not Active | Not Active | Not Active | Not Active | Not Active | Not Active |  | 
11 | Nc1c2c(nc3ccccc13)CCCC2 [TACRINE] | Not Active | Not Active | Not Active | Not Active | Not Active |  |  | Not Active | Not Active |  | 
12 | CC/C(=C(\c1ccccc1)c1ccc(OCCN(C)C)cc1)c1ccccc1 [TAMOXIFEN] | Not Active | Not Active |  | Not Active | Not Active |  |  | Not Active | Not Active | 2.58 | 1.86
13 | Cc1cccc(N(C)C(=S)Oc2ccc3ccccc3c2)c1 [TOLNAFTATE] | Not Active | Not Active | Not Active | Not Active | Not Active | Not Active | Not Active |  |  |  | 
